Measured values from paper PMC9687610, “Adenosine-Mimicking Derivatives of 3-Aminopyrazine-2-Carboxamide: Towards Inhibitors of Prolyl-tRNA Synthetase with Antimycobacterial Activity” (Biomolecules, 2022).
Like-named read-outs stand apart in the source and are kept apart here.

What was measured:
[1] = tested on: Pseudomonas aeruginosa CCM 3955 (ATCC 27853); experiment: Antibacterial microdilution broth (EUCAST), PA; format: cell-based; conditions: Pseudomonas aeruginosa; read after 24 h; read-out: PA MIC
[2] = tested on: Candida krusei CCM 8271 (ATCC 6258); experiment: Antifungal microdilution broth (EUCAST), CK; format: cell-based; conditions: Pichia kudriavzevii; read after 24 h; read-out: CK MIC
[3] = tested on: Staphylococcus aureus subsp. aureus methicillin-resistant (MRSA) CCM 4750 (ATCC 43300); experiment: Antibacterial microdilution broth (EUCAST), MRSA; format: cell-based; conditions: Staphylococcus aureus; read after 24 h; read-out: MRSA MIC
[4] = tested on: Escherichia coli CCM 3954 (ATCC 25922); experiment: Antibacterial microdilution broth (EUCAST), EC; format: cell-based; conditions: Escherichia coli; read after 24 h; read-out: EC MIC
[5] = tested on: Staphylococcus aureus subsp. aureus CCM 4223 (ATCC 29213); experiment: Antibacterial microdilution broth (EUCAST), SA; format: cell-based; conditions: Staphylococcus aureus; read after 24 h; read-out: SA MIC
[6] = tested on: M. aurum DSM 43999 (ATCC 23366); experiment: Microplate Alamar Blue Assay (MABA), M. aurum; format: cell-based; conditions: Mycolicibacterium aurum, read-out: M. aurum MIC
[7] = tested on: Candida albicans CCM 8320 (ATCC 24433); experiment: Antifungal microdilution broth (EUCAST), CA; format: cell-based; conditions: Candida albicans; read after 24 h; read-out: CA MIC
[8] = tested on: Lichtheimia corymbifera CCM 8077; experiment: Antifungal microdilution broth (EUCAST), LC; format: cell-based; conditions: Lichtheimia corymbifera, CCM8077; read after 24 h; read-out: LC MIC
[9] = tested on: Acinetobacter baumannii DSM 30007 (ATCC 19606); experiment: Antibacterial microdilution broth (EUCAST), ACI; format: cell-based; conditions: Acinetobacter baumannii; read after 24 h; read-out: ACI MIC
[10] = tested on: Klebsiella pneumoniae CCM 4415 (ATCC 10031); experiment: Antibacterial microdilution broth (EUCAST), KP; conditions: read after 24 h
[11] = tested on: Mycobacterium tuberculosis H37Ra ITM-M006710 (ATCC 9431); experiment: Microplate Alamar Blue Assay (MABA), Mtb H37Ra; format: cell-based; conditions: for MIC: Mycobacterium tuberculosis, 120 h, pH 6.6, MABA, Middlebrook 7H9 broth pH 6.6, resazurin after 120 h, read-out: Mtb H37Ra MIC
[12] = tested on: Trichophyton interdigitale CCM 8377 (ATCC 9533); experiment: Antifungal microdilution broth (EUCAST), TI; format: cell-based; conditions: Trichophyton interdigitale, 72 h, read-out: TI MIC
[13] = tested on: Aspergillus fumigatus ATCC 204305; experiment: Antifungal microdilution broth (EUCAST), AF; format: cell-based; conditions: Aspergillus fumigatus, ATCC204305; read after 24 h; read-out: AF MIC
[14] = tested on: Enterococcus faecalis CCM 4224 (ATCC 29212); experiment: Antibacterial microdilution broth (EUCAST), EF; format: cell-based; conditions: Enterococcus faecalis; read after 24 h; read-out: EF MIC
[15] = tested on: Candida tropicalis CCM 8264 (ATCC 750); experiment: Antifungal microdilution broth (EUCAST), CT; format: cell-based; conditions: Candida tropicalis; read after 24 h; read-out: CT MIC
[16] = tested on: HepG2 human hepatocellular carcinoma cells; experiment: In vitro HepG2 cytotoxicity (CellTiter 96); conditions: for IC50: Homo sapiens, HepG2, 24 h, read-out: HepG2 IC50, 24 h incubation, * limit = highest evaluated concentration (precipitation in medium), ** over the 1000 µM limit
[17] = tested on: Staphylococcus epidermidis CCM 4418 (ATCC 12228); experiment: Antibacterial microdilution broth (EUCAST), SE; format: cell-based; conditions: read after 24 h, read-out: SE MIC
[18] = tested on: Aspergillus flavus CCM 8363; experiment: Antifungal microdilution broth (EUCAST), AFla; format: cell-based; conditions: Aspergillus flavus, CCM8363; read after 24 h; read-out: AFla MIC
[19] = tested on: Mycobacterium smegmatis DSM 43465 (ATCC 607); experiment: Microplate Alamar Blue Assay (MABA), M. smegmatis; format: cell-based; conditions: Mycolicibacterium smegmatis, read-out: M. smegmatis MIC
[20] = tested on: Candida parapsilosis CCM 8260 (ATCC 22019); experiment: Antifungal microdilution broth (EUCAST), CP; format: cell-based; conditions: Lodderomyces parapsilosis; read after 24 h; read-out: CP MIC

NC(=O)c1nccnc1NC(=O)c1cccc(F)c1 [Compound 11]
234.1 to 236 °C: melting point
> 50 µM: IC50 [16]
≥ 125 µg/mL: MIC ([6]; 72 h) | MIC [11] | MIC ([19]; 48 h)
low solubility: solubility in the testing medium (in words) ([16]; HepG2 cell culture medium)
> 250 µM: MIC [1] | MIC [2] | MIC [3] | MIC [4] | MIC [5] | MIC [7] | MIC [8] | MIC [9] | KP MIC [10] | MIC [12] | MIC [13] | MIC [14] | MIC [15] | MIC [17] | MIC [18] | MIC [20]

Cc1ccccc1C(=O)Nc1nccnc1C(N)=O [Compound 2]
≥ 500 µg/mL: MIC ([6]; MABA, resazurin after 72 h) | MIC [11] | MIC ([19]; MABA, resazurin after 48 h)
> 500 µM: MIC [1] | MIC [3] | MIC [4] | MIC [5] | MIC [9] | KP MIC [10] | MIC [14] | MIC [17]
234.4 to 235.9 °C: melting point
> 125 µM: MIC [2] | MIC [7] | MIC [8] | MIC [12] | MIC [13] | MIC [15] | MIC [18] | MIC [20]
422 µM: IC50 [16]

NC(=O)c1nccnc1NC(=O)c1ccccc1F [Compound 10]
556 µM: IC50 [16]
> 500 µM: MIC [1] | MIC [2] | MIC [3] | MIC [4] | MIC [5] | MIC [7] | MIC [8] | MIC [9] | KP MIC [10] | MIC [12] | MIC [13] | MIC [14] | MIC [15] | MIC [17] | MIC [18] | MIC [20]
211 to 213 °C: melting point
≥ 500 µg/mL: MIC ([6]; MABA, resazurin after 72 h) | MIC ([19]; MABA, resazurin after 48 h)
250 µg/mL: MIC [11]

Cc1ccc(-c2nc3nccnc3c(=O)[nH]2)cc1 [Compound 40]
250 µg/mL: MIC ([6]; MABA, resazurin after 72 h)
> 125 µM: MIC [1] | MIC [2] | MIC [3] | MIC [4] | MIC [5] | MIC [7] | MIC [8] | MIC [9] | KP MIC [10] | MIC [12] | MIC [13] | MIC [14] | MIC [15] | MIC [17] | MIC [18] | MIC [20]
> 1000 µM: IC50 [16]
300.5 to 302 °C: melting point
≥ 250 µg/mL: MIC ([19]; MABA, resazurin after 48 h)
31.2 µg/mL: MIC [11]

NC(=O)c1nccnc1NC(=O)c1ccccc1C(F)(F)F [Compound 20]
> 250 µM: IC50 [16]
> 500 µM: MIC [1] | MIC [2] | MIC [3] | MIC [4] | MIC [5] | MIC [7] | MIC [8] | MIC [9] | KP MIC [10] | MIC [12] | MIC [13] | MIC [14] | MIC [15] | MIC [17] | MIC [18] | MIC [20]
500 µg/mL: MIC [11]
201.5 to 202.4 °C: melting point
≥ 500 µg/mL: MIC ([6]; MABA, resazurin after 72 h) | MIC ([19]; MABA, resazurin after 48 h)

CCc1ccc(C(=O)Nc2nccnc2C(N)=O)cc1 [Compound 5]
215.5 to 218.5 °C: melting point
no activity: antimycobacterial activity (in words) ([11]; activity refers to Mtb H37Ra from the primary screening if not otherwise stated)
> 100 µM: IC50 [16]
≥ 500 µg/mL: MIC ([6]; MABA, resazurin after 72 h) | MIC [11] | MIC ([19]; MABA, resazurin after 48 h)
> 250 µM: MIC [1] | MIC [2] | MIC [3] | MIC [4] | MIC [5] | MIC [7] | MIC [8] | MIC [9] | KP MIC [10] | MIC [12] | MIC [13] | MIC [14] | MIC [15] | MIC [17] | MIC [18] | MIC [20]

CCCCCCC(=O)Nc1nccnc1C(N)=O [Compound 31]
> 250 µM: IC50 [16]
131.5 to 132.1 °C: melting point
> 125 µM: MIC [1] | MIC [2] | MIC [3] | MIC [4] | MIC [5] | MIC [7] | MIC [8] | MIC [9] | KP MIC [10] | MIC [12] | MIC [13] | MIC [14] | MIC [15] | MIC [17] | MIC [18] | MIC [20]
≥ 500 µg/mL: MIC ([6]; MABA, resazurin after 72 h) | MIC [11] | MIC ([19]; MABA, resazurin after 48 h)

CNC(=O)c1nccnc1NC(=O)c1ccc(Br)cc1 [Compound 35]
202 to 202.5 °C: melting point
> 125 µM: MIC [1] | MIC [2] | MIC [3] | MIC [4] | MIC [5] | MIC [7] | MIC [8] | MIC [9] | KP MIC [10] | MIC [12] | MIC [13] | MIC [14] | MIC [15] | MIC [17] | MIC [18] | MIC [20]
≥ 500 µg/mL: MIC ([6]; MABA, resazurin after 72 h) | MIC [11] | MIC ([19]; MABA, resazurin after 48 h)
> 50 µM: IC50 [16]
